Here are results for 7 substances from patent US12612441B2, “Polypeptide and therapeutic uses thereof” (Vitalixir (Beijing) Co., Ltd, priority 2019, dated 2026).

Entries after “also recorded” stand apart in the source; their conditions may differ. Where no end group is shown, it is not given here. [ ]: non-standard residue; d: D form. Aib = CC(C)(N)C(=O)O

Experiment [1] concerns db/db mice. Put plainly: Blood glucose lowering in db/db mice (Example 8). The format is in vivo. As to conditions: db/db male mice, 30 nmol/kg subcutaneous single dose, blood glucose 0-10 hours, AUC, vs PBS control; FIG. 2. The method, then:
The feeding conditions of db/db mice were the same as described in Example 7. The db/db male mice (8 weeks old) were given one week to acclimate to the environmental conditions of the test facility. Baseline blood glucose and body weight were recorded for three days before the experiment (−3 day to −1 day). The mice were randomly grouped based on their three-day blood glucose and body weight, with 6 mice in each group. Mice were injected subcutaneously with PBS (5 ml/kg, control group) or the peptide compounds 31, 35, 38, 44 and 49 (30 nmol/kg) respectively at 10:00 in the morning. Blood was collected at 0 hour before drug administration, and 1, 2, 4, 6, 8, and 10 hours after administration, and blood glucose was measured using a OneTouch glucose meter (Johnson & Johnson) and test strips. Blood glucose curves were plotted with time as the abscissa and the blood glucose value at different time point as the ordinate, and the areas under the curve (AUC) were calculated.

A further experiment concerns DIO obese mice. In words: DIO obese mice 14-day body composition study (Example 14). The format is in vivo, C57BL/6 mice. As to conditions: 1.5 nmole per animal s.c. once a day for 14 days; for lean mass: EchoMRI day 0 vs day 15, FIG. 13; for fat mass: EchoMRI day 0 vs day 15, vs PBS control, FIG. 13. Here is the method:
The DIO obese mice experiment was conducted by Shanghai WuXi AppTec New Drug Development Co., Ltd. The animal feeding was the same as described in Example 13. The animals were adapted to grasping and subcutaneous injection for 1 week at 40 weeks of age. The body weight and food intake were measured for 3 consecutive days before the experiment, and the fasting blood glucose of the animals was measured 1 day before the experiment. The animals with abnormal blood glucose were removed, and the remaining animals were grouped according to the random blood glucose and body weight of the animals (using body weight as the main reference indicator), with 6 animals per group and an average weight of 47 grams. During the experiment, each group of the animals was injected subcutaneously with PBS, or 1.5 nmole of compound 35 or compound 40 per animal once a day, and the dosing period was 14 days. An EchoMRI body composition analyzer was used to measure the body fat content of the animals before and after the experiment.

The subject of experiment [2] is db/db mice. In words: Blood glucose lowering in db/db mice (Example 7). Conditions: db/db male mice, 30 nmol/kg subcutaneous single dose, blood glucose 0-10 hours, AUC, vs PBS control; FIG. 1. The format is in vivo. Here is the method: db/db mice were housed in animal feeding rooms with strictly controlled environmental conditions. The temperature in the feeding room was maintained at 20-24° C. and the humidity was maintained at 40-70%. The temperature and humidity of the feeding room were monitored in real time by a temperature and humidity meter, and the temperature and humidity were recorded twice a day (once in the morning and once in the afternoon). The lighting in the animal feeding room was controlled by an electronic timing light-on system. The lights were turned on for 12 hours and turned off for 12 hours every day (on at 7:00 in the morning and off at 19:00 in the afternoon). During the experiment, the mice were individually housed in each cage, and toys were provided to the mice in each cage. During the experiment mice had free access to water. The db/db male mice (6 weeks old) were given one week to acclimate to the environmental conditions of the test facility. Baseline blood glucose and body weight were recorded for three days before the test (−3 day to −1 day). The mice were randomly grouped based on three-day blood glucose and body weight, with 6 mice in each group. The mice were injected subcutaneously with PBS (5 ml/kg, control group) or the peptide compounds 1, 2, 8, 16, 18, 19, 24, and 36 (30 nmol/kg) respectively at 10:00 am. Blood was collected at 0 hour before drug administration, and 1, 2, 4, 6, 8 and 10 hours after administration, and blood glucose was measured using a OneTouch glucose meter (Johnson & Johnson) and test strips. Blood glucose curves were plotted with time as the abscissa and the blood glucose value at different time point as the ordinate, the areas under the curve (AUC) were calculated, and the hypoglycemic effects and duration of time of the peptide compounds were compared.

“Y(aib)EGTFTSDLSIALEKEAVRLFIEWLLAGGPSSGAPPPS-NH2 (Y[Aib]EGTFTSDLSIALEKEAVRLFIEWLLAGGPSSGAPPPS-NH2; N-terminus assumed; SMILES CC[C@H](C)[C@H](NC(=O)[C@H](CO)NC(=O)[C@H](CC(C)C)NC(=O)[C@H](CC(=O)O)NC(=O)[C@H](CO)NC(=O)[C@@H](NC(=O)[C@H](Cc1ccccc1)NC(=O)[C@@H](NC(=O)CNC(=O)[C@H](CCC(=O)O)NC(=O)C(C)(C)NC(=O)[C@@H](N)Cc1ccc(O)cc1)[C@@H](C)O)[C@@H](C)O)C(=O)N[C@@H](C)C(=O)N[C@@H](CC(C)C)C(=O)N[C@@H](CCC(=O)O)C(=O)N[C@@H](CCCCN)C(=O)N[C@@H](CCC(=O)O)C(=O)N[C@@H](C)C(=O)N[C@H](C(=O)N[C@@H](CCCNC(=N)N)C(=O)N[C@@H](CC(C)C)C(=O)N[C@@H](Cc1ccccc1)C(=O)N[C@H](C(=O)N[C@@H](CCC(=O)O)C(=O)N[C@@H](Cc1c[nH]c2ccccc12)C(=O)N[C@@H](CC(C)C)C(=O)N[C@@H](CC(C)C)C(=O)N[C@@H](C)C(=O)NCC(=O)NCC(=O)N1CCC[C@H]1C(=O)N[C@@H](CO)C(=O)N[C@@H](CO)C(=O)NCC(=O)N[C@@H](C)C(=O)N1CCC[C@H]1C(=O)N1CCC[C@H]1C(=O)N1CCC[C@H]1C(=O)N[C@@H](CO)C(N)=O)[C@@H](C)CC)C(C)C) [Compound 31]”: the blood glucose result with db/db mice [1] is “significantly reduced the blood glucose”. In the case of “Y(aib)EGTFTSDLSI(aib)LEKEAVRLFIEWLLAGGPSSGAPPPK-NH2 (YXEGTFTSDLSIXLEKEAVRLFIEWLLAGGPSSGAPPPK; Aib; C-terminal amide; MOD_RES (2)..(2) X=aminoisobutyric aicd; MOD_RES (13)..(13) X=aminoisobutyric aicd; MOD_RES (39)..(39) AMIDATION, C-termianl amidation) [Compound 40]”, in the experiment on DIO obese mice, the lean mass entry is “basically unchanged” and the fat mass entry is recorded as “effectively reduced fat mass; also recorded: decreased markedly”. In the case of “Y(aib)EGTFTSDLSI(aib)LEKEAVKLFIEWLLAGGPSSGAPPPK-NH2 (YXEGTFTSDLSIXLEKEAVKLFIEWLLAGGPSSGAPPPK; Aib; C-terminal amide; …ON (2)..(2) X=aminoisobutyric aicd; …ON (13)..(13) X=aminoisobutyric aicd; …ON (39)..(39) AMIDATION, C-termianl amidation) [Compound 49]”, the blood glucose entry in the experiment on db/db mice [1] is “significantly reduced the blood glucose”. Still for that read-out and setting: in the case of “Y(aib)EGTFTSDLSI(aib)LEKEAVRLFIEWLLAGGPSSGAPPPC-NH2 (YXEGTFTSDLSIXLEKEAVRLFIEWLLAGGPSSGAPPPC; Aib; C-terminal amide; MOD_RES (2)..(2) X=aminoisobutyric aicd; MOD_RES (13)..(13) X=aminoisobutyric aicd; MOD_RES (39)..(39) AMIDATION, C-termianl amidation) [Compound 38]” it was “significantly reduced the blood glucose”. With “Y(aib)EGTFTSDLSIALEKEAVRLFIEWLLAGGPSSGAPPPK-NH2 (Y[Aib]EGTFTSDLSIALEKEAVRLFIEWLLAGGPSSGAPPPK-NH2; N-terminus assumed; SMILES CC[C@H](C)[C@H](NC(=O)[C@H](CO)NC(=O)[C@H](CC(C)C)NC(=O)[C@H](CC(=O)O)NC(=O)[C@H](CO)NC(=O)[C@@H](NC(=O)[C@H](Cc1ccccc1)NC(=O)[C@@H](NC(=O)CNC(=O)[C@H](CCC(=O)O)NC(=O)C(C)(C)NC(=O)[C@@H](N)Cc1ccc(O)cc1)[C@@H](C)O)[C@@H](C)O)C(=O)N[C@@H](C)C(=O)N[C@@H](CC(C)C)C(=O)N[C@@H](CCC(=O)O)C(=O)N[C@@H](CCCCN)C(=O)N[C@@H](CCC(=O)O)C(=O)N[C@@H](C)C(=O)N[C@H](C(=O)N[C@@H](CCCNC(=N)N)C(=O)N[C@@H](CC(C)C)C(=O)N[C@@H](Cc1ccccc1)C(=O)N[C@H](C(=O)N[C@@H](CCC(=O)O)C(=O)N[C@@H](Cc1c[nH]c2ccccc12)C(=O)N[C@@H](CC(C)C)C(=O)N[C@@H](CC(C)C)C(=O)N[C@@H](C)C(=O)NCC(=O)NCC(=O)N1CCC[C@H]1C(=O)N[C@@H](CO)C(=O)N[C@@H](CO)C(=O)NCC(=O)N[C@@H](C)C(=O)N1CCC[C@H]1C(=O)N1CCC[C@H]1C(=O)N1CCC[C@H]1C(=O)N[C@@H](CCCCN)C(N)=O)[C@@H](C)CC)C(C)C) [Compound 35]”, in the experiment on DIO obese mice, the lean mass entry is on record as “basically unchanged” and the fat mass result is recorded as “effectively reduced fat mass; also recorded: decreased markedly”. Also, the blood glucose entry with db/db mice [1] is “significantly reduced the blood glucose”. On to “Y(aib)EGTFTSDLSIALEKEAVKLFIEWLLAGGPSSGAPPPK-NH2 (Y[Aib]EGTFTSDLSIALEKEAVKLFIEWLLAGGPSSGAPPPK-NH2; N-terminus assumed; SMILES CC[C@H](C)[C@H](NC(=O)[C@H](CO)NC(=O)[C@H](CC(C)C)NC(=O)[C@H](CC(=O)O)NC(=O)[C@H](CO)NC(=O)[C@@H](NC(=O)[C@H](Cc1ccccc1)NC(=O)[C@@H](NC(=O)CNC(=O)[C@H](CCC(=O)O)NC(=O)C(C)(C)NC(=O)[C@@H](N)Cc1ccc(O)cc1)[C@@H](C)O)[C@@H](C)O)C(=O)N[C@@H](C)C(=O)N[C@@H](CC(C)C)C(=O)N[C@@H](CCC(=O)O)C(=O)N[C@@H](CCCCN)C(=O)N[C@@H](CCC(=O)O)C(=O)N[C@@H](C)C(=O)N[C@H](C(=O)N[C@@H](CCCCN)C(=O)N[C@@H](CC(C)C)C(=O)N[C@@H](Cc1ccccc1)C(=O)N[C@H](C(=O)N[C@@H](CCC(=O)O)C(=O)N[C@@H](Cc1c[nH]c2ccccc12)C(=O)N[C@@H](CC(C)C)C(=O)N[C@@H](CC(C)C)C(=O)N[C@@H](C)C(=O)NCC(=O)NCC(=O)N1CCC[C@H]1C(=O)N[C@@H](CO)C(=O)N[C@@H](CO)C(=O)NCC(=O)N[C@@H](C)C(=O)N1CCC[C@H]1C(=O)N1CCC[C@H]1C(=O)N1CCC[C@H]1C(=O)N[C@@H](CCCCN)C(N)=O)[C@@H](C)CC)C(C)C) [Compound 44]”, for which the blood glucose result in the experiment with db/db mice [1] is “significantly reduced the blood glucose”. In the case of “Y(aib)EGTFTSDYSIYLEKEAVRLFIEWLIAGGPSSGAPPPS-NH2 (Y[Aib]EGTFTSDYSIYLEKEAVRLFIEWLIAGGPSSGAPPPS-NH2; N-terminus assumed; SMILES CC[C@H](C)[C@H](NC(=O)[C@H](CC(C)C)NC(=O)[C@H](Cc1c[nH]c2ccccc12)NC(=O)[C@H](CCC(=O)O)NC(=O)[C@@H](NC(=O)[C@H](Cc1ccccc1)NC(=O)[C@H](CC(C)C)NC(=O)[C@H](CCCNC(=N)N)NC(=O)[C@@H](NC(=O)[C@H](C)NC(=O)[C@H](CCC(=O)O)NC(=O)[C@H](CCCCN)NC(=O)[C@H](CCC(=O)O)NC(=O)[C@H](CC(C)C)NC(=O)[C@H](Cc1ccc(O)cc1)NC(=O)[C@@H](NC(=O)[C@H](CO)NC(=O)[C@H](Cc1ccc(O)cc1)NC(=O)[C@H](CC(=O)O)NC(=O)[C@H](CO)NC(=O)[C@@H](NC(=O)[C@H](Cc1ccccc1)NC(=O)[C@@H](NC(=O)CNC(=O)[C@H](CCC(=O)O)NC(=O)C(C)(C)NC(=O)[C@@H](N)Cc1ccc(O)cc1)[C@@H](C)O)[C@@H](C)O)[C@@H](C)CC)C(C)C)[C@@H](C)CC)C(=O)N[C@@H](C)C(=O)NCC(=O)NCC(=O)N1CCC[C@H]1C(=O)N[C@@H](CO)C(=O)N[C@@H](CO)C(=O)NCC(=O)N[C@@H](C)C(=O)N1CCC[C@H]1C(=O)N1CCC[C@H]1C(=O)N1CCC[C@H]1C(=O)N[C@@H](CO)C(N)=O) [Compound 16]”, the blood glucose result with db/db mice [2] is on record as “significantly reduce blood glucose”.
